{"source": "patent US11266715B2", "about": "“C3A receptor agonists for use against ischemic brain injury, stroke, traumatic brain injury, spinal cord injury and neurodegenerative disorders” (priority 2016, dated 2022)", "key": {"[1]": {"test_system": "WT mice subjected to photothrombotic stroke in the motor cortex", "assay": "Cylinder test (spontaneous forelimb asymmetry) after photothrombotic stroke", "format": "in vivo, mouse", "experimental": "Cortical photothrombosis was induced using the Rose Bengal method (Lee et al., 2007; Watson et al., 1985) with some modifications. Anesthesia was induced with isoflurane (Forene®, Abbott) in air and oxygen (1:1) initially at 5% and reduced to 2.5% during the surgical procedure. Body temperature was monitored by a rectal probe and maintained at 37° C. using a homeothermic control unit (Harvard Apparatus). Anesthetized mice were placed in a stereotaxic frame, the skull was exposed through a midline scalp incision and Rose Bengal (200 μl, 10 mg/ml solution in sterile saline, Sigma) was injected intraperitoneally. After 5 min, the skull and underlying brain tissue were illuminated for 12 min by a 2 mm diameter cold laser beam (50 mW, 561 nm; Cobolt AB) positioned at AP +0.5 mm and ML −2.7 mm relative to Bregma, targeting the border between left primary somatosensory and motor cortex (Porritt et al., 2012). For intervention experiments targeting motor cortex, stroke was induced as above with the following modifications: Transcranial illumination lasting 15 min was delivered using cold light source (LQ1600, Fiberoptic-Heim AG) equipped with 2 mm wide fiber optic probe and directed to AP +0 and ML −1.5 relative to Bregma. After illumination, the scalp was sutured and mice were placed in a warm cage for 45 min to recover from anesthesia prior to being returned to the home cage. Mice were provided with moist mashed food placed on the floor of the home cage and their weight was monitored daily for 7 days after surgery. There were no significant differences in body weight, body temperature (36.5±0.5° C.), duration of surgery, or post-stroke mortality between cohorts. Each cohort contained an even distribution of mice from the matched strains or treatment groups.\nPurified human C3a peptide (Complement Technologies) was diluted in sterile phosphate buffered saline (PBS) to a concentration of 200 nM and a total of 20 μl (10 μl/nostril; corresponding to approximately 1.13 μg/kg body weight) of peptide solution or PBS was given intranasally to awake, hand-restrained mice held in a supine position. Solutions were administered through a pipette tip, drop-wise in 5 μl portions divided by 1 min intervals to allow for absorption. C3a or PBS was given every 24 hours on days 7 to 21 post-stroke for the short-term study or on days 7 to 28 post-stroke for the long-term study. Mice were assigned to C3a or PBS treatment using randomization stratified by body weight to avoid potential confounding effects of body weight on behavioural performance. The investigators carrying out behavioural studies and analysing data were blinded to treatment group. For the assessment of potential systemic anaphylactic response due to intranasal C3a inoculation, body temperature was monitored using a rectal temperature probe (Harvard Apparatus) inserted approximately 4 mm into the rectum of awake mice restrained by the scruff. Baseline temperature was taken before intranasal administration and 5, 15, 30, 45 and 75 min after C3a or PBS administration.\nFunctional impairment of mice treated intranasally with C3a or vehicle was assessed using a modified cylinder test and a grid walking task to closely evaluate forepaw function. Mice were tested once on each task one week before stroke induction to establish baseline performance. Next, they were tested on days 7, 14 and 21 (short-term study) or days 7, 14, 28, 42 and 56 (long-term study) post-stroke. […]"}, "GAP-43+ puncta": {"test_system": "GAP-43+ puncta", "assay": "GAP-43 immunostaining of cortex 21 days after stroke", "format": "in vivo, mouse", "experimental": "For immunofluorescent evaluation, sections were deparaffinized, heated three times for 5 min in a microwave oven in 0.01 M citric buffer (pH 6.0), and blocked in PBS containing 0.05% Tween-20 (Sigma) and 1% in Bovine serum albumin (BSA, Sigma) for GAP-43 and synapsin I staining, 3% normal goat serum for VGLUT1 staining or 4% normal donkey serum for GAP-43 double stainings. Goat anti-synapsin la/b antibody (1:150; Santa Cruz, sc-7379) was followed by biotin-conjugated donkey anti-goat immunoglobulin (Ig) secondary antibody (1:200; Jackson Research Lab, 705-065-147) and Cy3-conjugated streptavidin (1:100; Sigma). Guinea pig anti-VGLUT1 (1:500; Millipore, AB5905) was followed by Alexa Fluor 488 goat anti-guinea pig Ig (1:500; Molecular Probes, A11073). For single staining, mouse anti-GAP-43 antibody (1:1000; Millipore, MAB347), was followed by biotinylated rabbit anti-mouse Ig secondary antibody (1:200; Dako, E0354) and Cy3-conjugated streptavidin (1:100; Sigma). […]\nHighest signal intensity single plane images of immunostained sections were obtained by laser scanning confocal microscope (LSM TCS SP2, Leica Microsystems, ×63/NA 1.3 objective for synapsin I and GAP-43; and LSM 700, Carl Zeiss for VGLUT1 ×40/NA 1.3) at 1024×1024 pixels resolution. […] Three standard sections per animal in 160 μm intervals were analysed. […]\nSingle-stained images were analysed using MetaMorph® software (Molecular Devices, ver. 2.8.5) to obtain number, average size and intensity of positive punctuate structures per image. […] An experimenter blinded to experimental group performed all image acquisitions and quantifications."}}, "data": [{"substance": "C3a: Purified human C3a peptide (Complement Technologies), C3a receptor agonist, amino acid sequence SEQ ID NO: 1", "values": [{"measurement": "cylinder task average scores on last day of testing, C3a vs PBS", "setting": "[1]; long-term study, day 56, Sidak's test P=0.0687", "result": "only a trend toward a difference between groups"}, {"measurement": "cylinder task performance at days 28 and 56 vs day 7", "setting": "[1]; long-term study, Dunnett's test P=0.032 and P=0.0019", "result": "sustained functional improvement"}, {"measurement": "mice that improved affected paw usage between day 7 and day 56", "setting": "[1]; long-term study, paired t-test P=0.009", "result": "8/10"}, {"measurement": "right paw use for body support, course between days 7 and 21", "setting": "[1]; short-term study, C3a days 7-21, n=10 mice/group", "result": "continuous improvement"}, {"measurement": "frequency of right paw use on day 21 vs baseline", "setting": "[1]; short-term study, P=0.062", "result": "did not differ from baseline performance"}, {"measurement": "increase in density of GAP-43+ puncta, ipsilesional motor cortex vs corresponding contralesional region", "setting": "GAP-43+ puncta; C3a-treated mice, P=0.012", "result": "~50", "unit": "%"}, {"measurement": "increase in density of GAP-43+ puncta, ipsilesional motor cortex vs ipsilesional cortex of PBS-treated mice", "setting": "GAP-43+ puncta; P=0.015", "result": "~50", "unit": "%"}, {"measurement": "average size of GAP-43+ puncta", "setting": "GAP-43+ puncta; between experimental groups", "result": "did not differ between the experimental groups"}]}]}
